Assay results as given in patent US7553966B2, “Glucocorticoid mimetics, methods of making them, pharmaceutical compositions, and uses thereof” (Boehringer Ingelheim Pharmaceuticals, Inc., priority 2002, dated 2009).

Legend:
[1] = molecular target: T1, human glucocorticoid receptor (GR) complex (Homo sapiens, UniProt P04150); assay: Glucocorticoid Receptor Competitive Binding Assay (fluorescence polarization, TAMRA-labeled dexamethasone probe); settings: qualitative statement; competition with TAMRA-labeled dexamethasone
T1 construct: made in house; host or cells: insect expression system (baculovirus lysate)
T1 sequence (P04150 1-777): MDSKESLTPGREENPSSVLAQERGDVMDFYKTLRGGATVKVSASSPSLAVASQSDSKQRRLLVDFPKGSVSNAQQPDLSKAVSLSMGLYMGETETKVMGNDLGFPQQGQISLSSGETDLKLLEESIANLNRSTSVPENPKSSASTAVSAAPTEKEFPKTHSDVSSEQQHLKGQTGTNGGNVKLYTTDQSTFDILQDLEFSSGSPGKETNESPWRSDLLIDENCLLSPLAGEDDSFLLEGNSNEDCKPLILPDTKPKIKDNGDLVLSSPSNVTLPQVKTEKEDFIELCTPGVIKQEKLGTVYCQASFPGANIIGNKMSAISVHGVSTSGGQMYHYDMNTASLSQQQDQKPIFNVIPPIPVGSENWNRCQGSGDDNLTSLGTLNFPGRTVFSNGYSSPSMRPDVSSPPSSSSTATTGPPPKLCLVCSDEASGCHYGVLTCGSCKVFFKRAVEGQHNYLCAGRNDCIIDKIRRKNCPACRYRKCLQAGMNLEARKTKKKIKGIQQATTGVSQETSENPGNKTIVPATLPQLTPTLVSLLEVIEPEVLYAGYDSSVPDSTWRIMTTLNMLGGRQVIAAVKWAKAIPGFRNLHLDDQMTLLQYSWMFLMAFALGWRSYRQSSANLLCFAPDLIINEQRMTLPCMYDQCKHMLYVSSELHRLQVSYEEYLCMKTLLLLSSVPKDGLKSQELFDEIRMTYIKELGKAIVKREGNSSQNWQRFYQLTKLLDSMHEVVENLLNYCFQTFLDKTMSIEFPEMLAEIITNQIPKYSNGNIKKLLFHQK
Outline: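 Competition with TAMRA-dexamethasone for a human GR complex expressed in insect cells, read by fluorescence polarization. Buffer was 10 mM TES, 50 mM KCl, 20 mM Na2MoO4, 1.5 mM EDTA, 0.04% CHAPS, 10% glycerol, 1 mM DTT, pH 7.4.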

glucocorticoid receptor = assay: Glucocorticoid Receptor Cell Assays (agonist activity in one or more of the above assays); assay type: cell-based; settings: qualitative statement; assay not specified
Experimental: B. Glucocorticoid Receptor Cell Assays
1. Induction of Aromatase in Fibroblasts (Cell Assay for Transactivation)
Dexamethasone, a synthetic ligand to the glucocorticoid receptor (GR), induces expression of aromatase in human foreskin fibroblast cells. The activity of aromatase is measured by the conversion of testosterone to estradiol in culture media.
On the day of the experiment, the media in the wells is replaced with fresh media. Cells are treated with test compounds to final concentrations of 10^−5 M to 10^−8 M, and testosterone to a final concentration of 300 ng/mL. Each well has a total volume of 100 μL. Samples are made in duplicates. Control wells include: (a) wells that receive testosterone only, and (b) wells that receive testosterone plus 2 μM of dexamethasone to provide maximum induction of aromatase. Plates are incubated at 37° C. overnight (15 to 18 hours), and supernatants are harvested at the end of incubation. […] The amount of estradiol is inversely proportional to the ELISA signals in each well. The extent of aromatase induction by test compounds is expressed as a relative percentage to dexamethasone. EC50 values of test compounds are derived by non-linear curve fitting.
2. Inhibition of IL-6 Production in Fibroblasts (Cell Assay for Transrepression)
Human foreskin fibroblast cells produce IL-6 in response to stimulation by pro-inflammatory cytokine IL-1.
On the next day, media in the wells is replaced with fresh media. Cells are treated with IL-1 (rhIL-1α, R&D Systems Cat. No. 200-LA) to a final concentration of 1 ng/mL, and with test compounds to final concentrations of 10^−5 M to 10^−8 M, in a total volume of 200 μL per well. Samples are done in duplicates. […] Positive control wells receive IL-1 only and represent maximum (or 100%) amount of IL-6 production. Plates are incubated at 37° C. overnight (15 to 18 hours), and supernatants are harvested at the end of incubation. IL-6 levels in the supernatants are determined by the ELISA kits for IL-6 (MedSystems Diagnostics GmbH, Vienna, Austria, Cat. No. BMS213TEN) according to manufacture's instructions. The extent of inhibition of IL-6 by test compounds is expressed in percentage relative to positive controls. IC50 values of test compounds are derived by non-linear curve fitting.
Evaluation of agonist or antagonist activity of compounds binding to the glucocorticoid receptor may be determined by any of the assays.
3. Modulation of Tyrosine Aminotransferase (TAT) Induction in Rat Hepatoma Cells
Testing of compounds for agonist or antagonist activity in induction of tyrosine aminotransferase (TAT) in rat hepatoma cells.
H4-II-E-C3 cells were incubated overnight in 96 well plates (20,000 cells/100 μL/well) in MEM medium containing 10% heat inactivated FBS and 1% nonessential amino acids. On the next day, cells were stimulated with the indicated concentrations of dexamethasone or test compound (dissolved in DMSO, final DMSO concentration 0.2%) for 18 hours. Control cells were treated with 0.2% DMSO. After 18 hours, the cells were lysed in a buffer containing 0.1% Triton X-100 and the TAT activity was measured in a photometric assay using tyrosine and alpha-ketoglutarate as substrates.
For measuring antagonist activity, the hepatoma cells were pre-stimulated by addition of dexamethasone (concentration ranges from 3×10^−9 M to 3×10^−8 M) shortly before the test compound was applied to the cells.
4. Modulation of MMTV-Luc Induction in HeLa Cells
Testing of compounds for agonist or antagonist activity in stimulation of MMTV-(mouse mammary tumor virus) promoter in HeLa cells.
Cells were cultured overnight in DMEM medium without phenol red, supplemented with 3% CCS (charcoal treated calf serum) and then transferred to 96 well plates (15,000 cells/100 μL/well).

Row | Structure (SMILES) | activity in the GR binding assay [1] | activity as agonists of the glucocorticoid receptor function in one or more of the above assays (glucocorticoid receptor)
1 | COc1ccc(F)cc1C(C)(C)CC(O)(Cc1[nH]c2cnccc2c1C)C(F)(F)F (centres unmarked) [1,1,1-Trifluoro-4-(5-fluoro-2-methoxyphenyl)-4-methyl-2-(3-methyl-1H-pyrrolo[2,3-c]pyridin-2-ylmethyl)pentan-2-ol] | potent activity | potent agonists
2 | CC(C)(CC(O)(Cc1ccnc2cccc(F)c12)C(F)(F)F)c1ccc(F)cc1 (centres unmarked) [1,1,1-Trifluoro-4-(4-fluorophenyl)-2-(5-fluoroquinolin-4-ylmethyl)-4-methylpentan-2-ol] | potent activity | potent agonists
3 | COc1cc(F)c(Br)cc1C(C)(C)CC(O)(Cc1ccnc2ccccc12)C(F)(F)F (centres unmarked) [4-(5-Bromo-4-fluoro-2-methoxyphenyl)-1,1,1-trifluoro-4-methyl-2-quinolin-4-ylmethylpentan-2-ol] | potent activity | potent agonists
4 | CC(C)(CC(O)(Cc1cc2ccncc2[nH]1)C(F)(F)F)c1ccc(F)cc1O (centres unmarked) [5-Fluoro-2-[4,4,4-trifluoro-3-hydroxy-1,1-dimethyl-3-(1H-pyrrolo[2,3-c]pyridin-2-ylmethyl)butyl]phenol] | potent activity | potent agonists
5 | Cc1ccccc1C(C)(C)CC(O)(Cc1cc2ccccc2[nH]1)C(F)(F)F (centres unmarked) [1,1,1-Trifluoro-2-(1H-indol-2-ylmethyl)-4-methyl-4-o-tolylpentan-2-ol] | potent activity | potent agonists
6 | CC(C)(CC(O)(Cc1cc2ccccc2[nH]1)C(F)(F)F)c1cc(Br)cc2c1OCC2 (centres unmarked) [4-(5-Bromo-2,3-dihydrobenzofuran-7-yl)-1,1,1-trifluoro-2-(1H-indol-2-ylmethyl)-4-methylpentan-2-ol] | potent activity | potent agonists
7 | CC(C)(CC(O)(Cc1cc2cc(C#N)ccc2[nH]1)C(F)(F)F)c1ccc(F)cc1 (centres unmarked) [2-[4-(4-Fluorophenyl)-2-hydroxy-4-methyl-2-trifluoromethylpentyl]-1H-indole-5-carbonitrile] | potent activity | potent agonists
8 | CC(C)(CC(O)(Cc1ccnc2ccccc12)C(F)(F)F)c1cc(Br)ccc1O (centres unmarked) [4-Bromo-2-(4,4,4-trifluoro-3-hydroxy-1,1-dimethyl-3-quinolin-4-ylmethylbutyl)phenol] | potent activity | potent agonists
9 | CC(C)(CC(O)(Cc1cc2ccccc2[nH]1)C(F)(F)F)c1cc(F)cc2c1OCC2 (centres unmarked) [1,1,1-Trifluoro-4-(5-fluoro-2,3-dihydrobenzofuran-7-yl)-2-(1H-indol-2-ylmethyl)-4-methylpentan-2-ol] | potent activity | potent agonists
10 | COc1cc(F)ccc1C(C)(C)CC(O)(Cc1ccnc2c1CCCC2)C(F)(F)F (centres unmarked) [1,1,1-Trifluoro-4-(4-fluoro-2-methoxyphenyl)-4-methyl-2-(5,6,7,8-tetrahydroquinolin-4-ylmethyl)pentan-2-ol] | potent activity | potent agonists
11 | COc1cc(F)ccc1C(C)(C)CC(O)(Cc1ccnc2ccccc12)C(F)(F)F (centres unmarked) [1,1,1-Trifluoro-4-(4-fluoro-2-methoxyphenyl)-4-methyl-2-quinolin-4-ylmethylpentan-2-ol] | potent activity | potent agonists
12 | COc1cc(F)ccc1C(C)(C)CC(O)(Cc1cc2cc(C#N)ccc2[nH]1)C(F)(F)F (centres unmarked) [2-[4-(4-Fluoro-2-methoxyphenyl)-2-hydroxy-4-methyl-2-trifluoromethylpentyl]-1H-indole-5-carbonitrile] | potent activity | potent agonists
13 | COc1ccc(F)cc1C(C)(C)CC(O)(Cc1cc2c(C)cc(C#N)cc2[nH]1)C(F)(F)F (centres unmarked) [2-[4-(5-Fluoro-2-methoxyphenyl)-2-hydroxy-4-methyl-2-trifluoromethylpentyl]-4-methyl-1H-indole-6-carbonitrile] | potent activity | potent agonists
14 | CC(C)(CC(O)(Cc1cc2cnccc2[nH]1)C(F)(F)F)c1cc(F)ccc1O (centres unmarked) [4-Fluoro-2-[4,4,4-trifluoro-3-hydroxy-1,1-dimethyl-3-(1H-pyrrolo[3,2-c]pyridin-2-ylmethyl)butyl]phenol] | potent activity | potent agonists
15 | COc1ccc(F)cc1C(C)(C)CC(O)(Cc1[nH]c2ccccc2c1C#N)C(F)(F)F (centres unmarked) [2-[4-(5-Fluoro-2-methoxyphenyl)-2-hydroxy-4-methyl-2-trifluoromethylpentyl]-1H-indole-3-carbonitrile] | potent activity | potent agonists
16 | Cc1cc(C)c2[nH]c(CC(O)(CC(C)(C)c3cc(F)ccc3O)C(F)(F)F)nc2c1 (centres unmarked) [2-[3-(5,7-Dimethyl-1H-benzoimidazol-2-ylmethyl)-4,4,4-trifluoro-3-hydroxy-1,1-dimethylbutyl]-4-fluorophenol] | potent activity | potent agonists
